These are literature values, as cited in patent US20080103124A1, “Cefdinir-containing pharmaceutical composition” (ASTELLAS PHARMA INC., priority 2006, published 2008).

Each structure is given as a SMILES string. Read-outs that look alike come from different tables or passages of the source.

The conditions of this data set: human beings.

Take `C=CC1=C(C(=O)O)N2C(=O)[C@@H](NC(=O)/C(=N\O)c3csc(N)n3)[C@H]2SC1` [cefdinir]: the absolute bioavailability runs as follows: (following administration of a 300 mg capsule) 21%; (following administration of an oral suspension of 250 mg/5 mL) 25%.
